Measurements: patent publication US20260152503A1, “SPIROBICYCLIC COMPOUNDS” (ACERAND THERAPEUTICS (HONG KONG) LIMITED, priority 2022, published 2026)

Tests used:
Type in all cases: cell-based
FGFR2 = target: T1, FGFR2 (Homo sapiens, UniProt P21802, K310R/N549K); experiment: pERK potency assay (In Cell ELISA), AN3CA cells; settings: for IC50: pERK, AN3CA (FGFR2/k310R, N549K) cells, 3 hours; for FGFR1 IC50/FGFR2 IC50 / FGFR3 IC50/FGFR2 IC50: selectivity ratio, pERK potency; for FGFR1 IC50/FGFR2 IC50: FGFR2 relative to FGFR1; for FGFR3 IC50/FGFR2 IC50: FGFR2 relative to FGFR3
T1 construct: in FGFR aberrations of AN3CA (FGFR2/k310R, N549K); host or cells: AN3CA
T1 sequence (P21802 22-821 K310R/N549K): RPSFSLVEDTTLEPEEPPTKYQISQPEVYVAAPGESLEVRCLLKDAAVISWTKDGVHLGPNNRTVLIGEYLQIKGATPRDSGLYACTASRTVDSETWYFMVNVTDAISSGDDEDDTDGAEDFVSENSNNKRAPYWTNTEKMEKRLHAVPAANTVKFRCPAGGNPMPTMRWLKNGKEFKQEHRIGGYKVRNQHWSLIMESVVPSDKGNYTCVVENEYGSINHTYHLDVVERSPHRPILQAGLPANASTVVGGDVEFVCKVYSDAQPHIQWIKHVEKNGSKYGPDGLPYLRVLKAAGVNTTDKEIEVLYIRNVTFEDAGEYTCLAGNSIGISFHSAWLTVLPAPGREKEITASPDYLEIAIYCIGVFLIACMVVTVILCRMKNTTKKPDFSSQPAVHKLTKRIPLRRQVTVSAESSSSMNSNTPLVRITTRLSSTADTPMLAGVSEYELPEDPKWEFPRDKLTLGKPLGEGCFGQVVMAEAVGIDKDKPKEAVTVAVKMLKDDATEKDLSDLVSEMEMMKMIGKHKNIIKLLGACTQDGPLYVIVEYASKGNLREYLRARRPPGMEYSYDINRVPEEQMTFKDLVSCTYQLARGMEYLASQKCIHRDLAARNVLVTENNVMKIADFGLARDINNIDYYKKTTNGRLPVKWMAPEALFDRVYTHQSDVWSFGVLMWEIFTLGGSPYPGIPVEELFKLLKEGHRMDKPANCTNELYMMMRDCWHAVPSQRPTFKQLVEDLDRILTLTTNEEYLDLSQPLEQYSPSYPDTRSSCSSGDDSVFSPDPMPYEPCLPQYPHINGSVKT
Excerpt: (§1) The purpose of this assay is to measure the ability of test compounds to inhibit FGFR mediated downstream signaling cascades, i.e., ERK phosphorylation in cells with FGFR aberrations. FGFR aberrations become constitutively active and thus induces cascades of cellular signaling events that result in increased phosphorylation of ERK at Threonine 202 and Tyrosine 204 (pERK). The procedure called In Cell ELISA described below measures the level of cellular pERK in response to FGFR specific inhibitor compounds in FGFR aberrations of AN3CA (FGFR2/k310R, N549K), DMS114 (FGFR1 amplification), RT112 (FGFR3 overexpression/FGFR3-TACC3 fusion) and Hep3B (FGF19 amplification) cells. AN3CA, DMS114 and Hep3B cells are from ATCC. RT112 cells are from Sigma. DMS114 cells are grown and maintained using RPMI-1640 medium supplemented with 10% heat-inactivated fetal bovine serum. AN3CA, Hep3B and RT112 cells are grown and maintained using DMEM supplemented with 10% heat-inactivated fetal bovine serum. On the day before test compound addition, cells are plated in poly-D-lysine coated 96-well cell culture plates (Corning® BioCoat® Cat #356640) at 40000 cells/well/100 μL and grown overnight in a 37° C., 5% CO2 incubator. Test compounds are prepared with 4-fold serial dilutions in DMSO, with a top concentration of 10 μM. On the day of the assay, 50 μL of test compound diluted in media was added to each well of cell culture plate with the final concentration of compounds spanning from 0.000038 μM to 10 μM. After compound addition, cells are incubated for 3 hours at 37° C., 5% CO2 and then the culture medium is removed. Cells are fixed with 4% formaldehyde in phosphate-buffered saline (PBS) and incubated at RT for 20 min. The plate is then washed three times with PBST (PBS with 0.05% tween-20), followed by the incubation with 100 μL of pre-cooled methanol at −20° C. for 20 min. After incubation, methanol is removed, and the plate is washed once with PBST. Cells are permeabilized with 100 µL/well of 0.1% Triton X-100 in PBS at RT for 20 min and then quenched with quenching buffer (PBST containing 1% H2O2 and 0.1% sodium azide) for 20 min at RT with gentle shaking. After washing once with PBST, blocking buffer (250 ul/well, Pierce™ Protein-Free-PBS Blocking Buffer, Cat #37572) was then added to the cells for 1-h incubation at RT, followed by anti-pERK antibody (cell signaling, 1:1000 dilution in 5% BSA in PBST) incubation overnight at 4° C. and secondary antibody-HRP (Jackson immunoresearch, 1:3000 dilution in 5% BSA in PBST) incubation at RT for 1 h. PBST wash is carried out after each step three times. Before the addition of the substrate (Advansta ELISABright), the plate is washed with PBS twice to remove detergent residues. Cellular pERK level is determined using the microplate reader (Biotek Synergy H1) to detect the chemiluminescence signal. IC50 is determined by fitting a 4-parameter sigmoidal concentration-response model. FGFR wild type cells (H1975, PC-9 and AGS) are used to serve as negative control (FGFR selectivity) with the same assay procedures described above.

FGFR1 = target: T2, FGFR1 (Homo sapiens, UniProt P11362); experiment: pERK potency assay (In Cell ELISA), DMS114 cells; settings: DMS114 (FGFR1 amplification) cells, 3 hours
T2 construct: DMS114 (FGFR1 amplification); host or cells: DMS114
T2 sequence (P11362 22-822): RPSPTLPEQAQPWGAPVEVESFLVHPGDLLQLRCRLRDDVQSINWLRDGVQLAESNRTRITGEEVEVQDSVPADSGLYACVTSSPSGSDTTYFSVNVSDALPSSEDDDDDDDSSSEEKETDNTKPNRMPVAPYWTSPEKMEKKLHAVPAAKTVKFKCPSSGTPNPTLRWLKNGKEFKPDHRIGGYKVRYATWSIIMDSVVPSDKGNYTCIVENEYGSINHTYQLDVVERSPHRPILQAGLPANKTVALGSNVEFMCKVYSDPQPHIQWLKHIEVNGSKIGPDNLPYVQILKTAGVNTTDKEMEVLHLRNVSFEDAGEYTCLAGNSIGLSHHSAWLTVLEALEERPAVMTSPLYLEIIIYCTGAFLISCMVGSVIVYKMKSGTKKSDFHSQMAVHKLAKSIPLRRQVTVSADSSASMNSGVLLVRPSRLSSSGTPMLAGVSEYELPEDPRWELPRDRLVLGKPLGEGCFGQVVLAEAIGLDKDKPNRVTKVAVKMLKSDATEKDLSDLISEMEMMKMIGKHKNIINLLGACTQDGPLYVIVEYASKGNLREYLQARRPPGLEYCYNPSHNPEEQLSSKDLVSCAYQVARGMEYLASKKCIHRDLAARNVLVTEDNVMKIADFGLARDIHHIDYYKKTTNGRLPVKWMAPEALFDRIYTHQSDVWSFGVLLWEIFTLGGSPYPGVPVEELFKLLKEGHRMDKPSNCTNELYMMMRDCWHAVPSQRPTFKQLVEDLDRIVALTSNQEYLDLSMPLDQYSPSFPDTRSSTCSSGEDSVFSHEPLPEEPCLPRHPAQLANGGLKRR
Excerpt: as §1

FGFR3 = target: T3, FGFR3 (Homo sapiens, UniProt P22607); experiment: pERK potency assay (In Cell ELISA), RT112 cells; settings: RT112 (FGFR3 overexpression/FGFR3-TACC3 fusion) cells, 3 hours
T3 construct: RT112 (FGFR3 overexpression/FGFR3-TACC3 fusion); host or cells: RT112; the other entry of the earlier key: TACC3 (Q9Y6A5, Transforming acidic coiled-coil-containing protein 3)
Excerpt: as §1

Row | SMILES | IC50 (FGFR2) | IC50 (FGFR1) | IC50 (FGFR3) | FGFR3 IC50/FGFR2 IC50 (FGFR2; given as numeric bound) | FGFR1 IC50/FGFR2 IC50 (FGFR2) | FGFR3 IC50/FGFR2 IC50 (FGFR2)
1 | C=CC(=O)N1CC2(CC(c3c(-c4ccc(Oc5ncccn5)cc4)c4c(N)ncnc4n3C)C2)C1 [Example 3, 1-(6-(4-amino-7-methyl-5-(4-(pyrimidin-2-yloxy)phenyl)-7H-pyrrolo[2,3-d]pyrimidin-6-yl)-2-azaspiro[3.3]heptan-2-yl)prop-2-en-1-one] | > 100 nM | > 100 nM | > 100 nM |  |  | 
2 | C=CC(=O)N1CCC2(CCC(c3c(-c4ccc(Oc5ncccn5)cc4)c4c(N)ncnc4n3C)CC2)CC1 [Example 6, 1-(9-(4-amino-7-methyl-5-(4-(pyrimidin-2-yloxy)phenyl)-7H-pyrrolo[2,3-d]pyrimidin-6-yl)-3-azaspiro[5.5]undecan-3-yl)prop-2-en-1-one] | > 100 nM | > 100 nM | > 100 nM |  |  | 
3 | C=CC(=O)N1CCC2(CC=C(c3c(-c4ccnn4C)c4c(N)ncnc4n3C)CC2)CC1 [Example 13, 1-(9-(4-amino-7-methyl-5-(1-methyl-1H-pyrazol-5-yl)-7H-pyrrolo[2,3-d]pyrimidin-6-yl)-3-azaspiro[5.5]undec-8-en-3-yl)prop-2-en-1-one] | > 100 nM | > 100 nM | > 100 nM |  |  | 
4 | C=CC(=O)N1CCC2(CC=C(c3c(C(C)C)c4c(N)ncnc4n3C)CC2)CC1 [Example 15, 1-(9-(4-amino-5-isopropyl-7-methyl-7H-pyrrolo[2,3-d]pyrimidin-6-yl)-3-azaspiro[5.5]undec-8-en-3-yl)prop-2-en-1-one] | 10 to 30 nM | > 100 nM | > 100 nM |  |  | F (a selectivity ratio greater than 50 but less than or equal to 150)
5 | C=CC(=O)N1CCC2(CC=C(c3c(-c4ccc(OCCN5CCCC5)cc4)c4c(N)ncnc4n3C)CC2)CC1 [Example 20, 1-(9-(4-amino-7-methyl-5-(4-(2-(pyrrolidin-1-yl)ethoxy)phenyl)-7H-pyrrolo[2,3-d]pyrimidin-6-yl)-3-azaspiro[5.5]undec-8-en-3-yl)prop-2-en-1-one] | 30 to 100 nM | > 100 nM | > 100 nM |  |  | F (a selectivity ratio greater than 50 but less than or equal to 150)

The next lines start with results.

Row | IC50 (FGFR2) | IC50 (FGFR1) | IC50 (FGFR3) | FGFR3 IC50/FGFR2 IC50 (FGFR2; given as numeric bound) | SMILES | FGFR1 IC50/FGFR2 IC50 (FGFR2) | FGFR3 IC50/FGFR2 IC50 (FGFR2)
6 | 1 to 10 nM | > 100 nM | > 100 nM |  | C=CC(=O)N1CC2(CC=C(c3c(-c4ccc(Oc5ncccn5)cc4)c4c(N)ncnc4n3C)CC2)C1 [Example 1, 1-(7-(4-amino-7-methyl-5-(4-(pyrimidin-2-yloxy)phenyl)-7H-pyrrolo[2,3-d]pyrimidin-6-yl)-2-azaspiro[3.5]non-6-en-2-yl)prop-2-en-1-one] | I (a selectivity ratio greater than 1000 but less than or equal to 2000) | F (a selectivity ratio greater than 50 but less than or equal to 150)
7 | 10 to 30 nM | > 100 nM | > 100 nM |  | C=CC(=O)NC1CC2(CC=C(c3c(-c4ccc(OC)cc4)c4c(N)ncnc4n3C)CC2)C1 (centres unmarked) [Example 7, N-(7-(4-amino-5-(4-methoxyphenyl)-7-methyl-7H-pyrrolo[2,3-d]pyrimidin-6-yl)spiro[3.5]non-6-en-2-yl)acrylamide] |  | 
8 | 10 to 30 nM | > 100 nM | > 100 nM | <50 | C=CC(=O)NC1CC2(CC=C(c3c(-c4ccc(Oc5ncccn5)cc4)c4c(N)ncnc4n3C)CC2)C1 (centres unmarked) [Example 9, N-(7-(4-amino-7-methyl-5-(4-(pyrimidin-2-yloxy)phenyl)-7H-pyrrolo[2,3-d]pyrimidin-6-yl)spiro[3.5]non-6-en-2-yl)acrylamide] | F (a selectivity ratio greater than 50 but less than or equal to 150) | 
9 | 10 to 30 nM | > 100 nM | > 100 nM |  | C=CC(=O)N1CCC2(CC=C(c3c(-c4cccnc4)c4c(N)ncnc4n3C)CC2)CC1 [Example 12, 1-(9-(4-amino-7-methyl-5-(pyridin-3-yl)-7H-pyrrolo[2,3-d]pyrimidin-6-yl)-3-azaspiro[5.5]undec-8-en-3-yl)prop-2-en-1-one] | G (a selectivity ratio greater than 150 but less than or equal to 500) | H (a selectivity ratio greater than 500 but less than or equal to 1000)
